GI50 and TGI data for 3 molecules are collected here from PubChem BioAssay (NCI).

Molecules are shown by their SMILES.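 1) Cells in 96-well plates. 2) Compound, 48 h, 5 concentrations. 3) Linear interpolation between surrounding doses. 4) Unreached endpoint = highest concentration. Abbreviation: GI50, concentration required for 50% inhibition of growth. TGI: total growth inhibition.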 A value given as a limit tells only on which side of the number the result lay.

Test systems include ACHN renal; CAKI-1 renal; HCT-116 colon; OVCAR-8 ovarian; PC-3 prostate; SF-268 CNS; SF-295 CNS; SN12C renal; SNB-19 CNS; U251 CNS.
Common to all, as to experiment: NCI tumour cell line growth inhibition, 48 h

In the case of `Clc1cc2c(nn1)Nc1ccccc1S2`, the GI50 in the test with ACHN renal, in the test with CAKI-1 renal, with HCT-116 colon, in the test on OVCAR-8 ovarian, in the test on PC-3 prostate and in the test with SF-268 CNS was more than 100 µM throughout. Further, the GI50 in the test with SF-295 CNS, with SN12C renal, with SNB-19 CNS and with U251 CNS was more than 100 µM in each case. Moreover, the TGI in the test on ACHN renal, with CAKI-1 renal, in the test with HCT-116 colon, in the test on OVCAR-8 ovarian, with PC-3 prostate and in the test on SF-268 CNS was more than 100 µM each time. Moreover, the TGI in the test on SF-295 CNS, in the test on SN12C renal, in the test with SNB-19 CNS and in the test on U251 CNS was more than 100 µM throughout.

As for `CC(=O)c1ccc(Nc2nc(Nc3ccc(F)cc3)nc(Nc3ccc(F)cc3)n2)cc1`, the GI50 in the test with ACHN renal is 14.7 µM; with CAKI-1 renal, 9.02 µM; with HCT-116 colon it was 12.7 µM; with OVCAR-8 ovarian, 6.91 µM; with PC-3 prostate it was 8.89 µM; in the test on SF-268 CNS, 10.8 µM. Moreover, the GI50 is 7.13 µM in the test with SF-295 CNS, 23.6 µM in the test on SN12C renal, 16.4 µM in the test with SNB-19 CNS and 11.7 µM in the test on U251 CNS. For the same molecule, the TGI was 45.1 µM with ACHN renal; 27.7 µM with CAKI-1 renal; more than 100 µM in the test with HCT-116 colon; 24.8 µM with OVCAR-8 ovarian; more than 100 µM in the test with PC-3 prostate; 46.6 µM in the test with SF-268 CNS. Besides, the TGI was 24.2 µM in the test on SF-295 CNS, more than 100 µM with SN12C renal, 53.8 µM with SNB-19 CNS and 30.1 µM in the test on U251 CNS.

Turning to `COc1cc2nc(-c3ccc(Cl)cc3)cc(OCCCN3CCCC3)c2cc1OC`, the GI50 with ACHN renal was 1.93 µM; in the test with CAKI-1 renal it was 0.303 µM; in the test with HCT-116 colon, 0.699 µM; in the test on OVCAR-8 ovarian, 1.19 µM; in the test on PC-3 prostate it was 1.76 µM; with SF-268 CNS, 2.53 µM. The GI50 with SF-295 CNS was 1.22 µM; in the test on SN12C renal, 0.914 µM; with SNB-19 CNS, 3.14 µM; in the test on U251 CNS, 1.79 µM. Further, the TGI in the test on ACHN renal was found to be 8.39 µM; in the test on CAKI-1 renal, 4.15 µM; with HCT-116 colon, 10.1 µM; in the test on OVCAR-8 ovarian, 16.1 µM; with PC-3 prostate it was 10.3 µM; with SF-268 CNS, 15.5 µM. Further, the TGI in the test with SF-295 CNS stood at 2.94 µM; in the test on SN12C renal it was 13.7 µM; with SNB-19 CNS it was 14.6 µM; in the test on U251 CNS, 14.5 µM.
